Source: PubChem BioAssay AID1033 (Sanford-Burnham Center for Chemical Genomics, 2008)
Calls of active or inactive are those of the source. How the calls were made is not given here.

molecular target: Chaperone protein DnaK (Escherichia coli (strain K12)) (UniProt P0A6Y8); experiment: E. coli DnaK SBD ligand binding – biophysical, NMR, chaperone (AID 1033); conditions: Purified DnaK SBD
Sequence (P0A6Y8 whole entry, looked up): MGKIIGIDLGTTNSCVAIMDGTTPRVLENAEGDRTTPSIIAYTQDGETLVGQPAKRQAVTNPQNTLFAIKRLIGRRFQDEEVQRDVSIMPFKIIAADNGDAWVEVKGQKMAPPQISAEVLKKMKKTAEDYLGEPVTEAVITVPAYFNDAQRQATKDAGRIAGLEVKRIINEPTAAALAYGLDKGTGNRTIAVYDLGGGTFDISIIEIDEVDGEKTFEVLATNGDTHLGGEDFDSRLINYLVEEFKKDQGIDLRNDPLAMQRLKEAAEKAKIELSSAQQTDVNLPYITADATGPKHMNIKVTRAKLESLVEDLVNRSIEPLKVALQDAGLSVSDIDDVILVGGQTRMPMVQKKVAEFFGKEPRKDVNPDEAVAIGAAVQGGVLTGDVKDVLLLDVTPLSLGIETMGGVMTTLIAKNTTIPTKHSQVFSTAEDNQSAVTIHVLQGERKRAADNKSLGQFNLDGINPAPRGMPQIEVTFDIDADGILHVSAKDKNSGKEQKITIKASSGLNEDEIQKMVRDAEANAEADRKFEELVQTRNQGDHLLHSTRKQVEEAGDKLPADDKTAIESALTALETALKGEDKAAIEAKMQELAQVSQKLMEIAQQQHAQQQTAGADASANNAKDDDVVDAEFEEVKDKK

SMILES	Kd
COc1ccc2cc3[n+](cc2c1OC)CCc1cc2c(cc1-3)OCO2	> 4 mM (inactive)
CN(C)c1n[nH]c(=O)[nH]c1=O	> 4 mM (inactive)
N#Cc1cnn(-c2ccc(Cl)cc2)c1N	> 4 mM (inactive)
Fc1ccc(-c2n[nH]c(=S)n2CC2CCCO2)cc1 (stereo not drawn)	> 4 mM (inactive)
C=C1CCC2C(CC2(C)C)C(=O)CCC1O (stereo not drawn)	> 4 mM (inactive)
O=C(O)c1csc(-c2cccnc2)n1	> 4 mM (inactive)
O=C(NC1CSCC1O)c1ccccc1 (stereo not drawn)	> 4 mM (inactive)
Cc1cc(C(=O)N2CCN(c3ncccn3)CC2)c(C)o1	> 4 mM (inactive)
Nc1ccc(N2CCOCC2)c(Cl)c1	> 4 mM (inactive)
CCNC(=S)NS(=O)(=O)c1ccccc1	> 4 mM (inactive)
Cc1cc(C(=O)O)n[nH]1	> 4 mM (inactive)
COC(=O)N1CCN(c2ccc(OC)cc2)CC1	> 4 mM (inactive)
Cc1ccc(NC(=O)N2CCC(C(N)=O)CC2)cc1	> 4 mM (inactive)
CC1(C)C(=O)C=C[C@@]2(C)C1=C(O)C(=O)[C@]1(C)C2CC[C@@]2(C)[C@H](c3ccoc3)C[C@H]3O[C@]321 (stereo partly drawn)	> 4 mM (inactive)
N#CCc1nc2ccccc2s1	> 4 mM (inactive)
Cc1nc(NCc2ccco2)nc2c1C(=O)CC(C)C2 (stereo not drawn)	> 4 mM (inactive)
Cc1ccc(O)c(NC(=O)c2ccco2)c1	> 4 mM (inactive)
CC(=O)O[C@@H]1CC2C(C)(C)[C@H](O)C=C[C@]2(C)C2CC[C@@]3(C)[C@H](c4ccoc4)OC(=O)C4OC43[C@@]21C (stereo partly drawn)	> 4 mM (inactive)
COC(=O)/C(C)=C\CC12OC(C)(C)C3CC(C=C4C(=O)c5c(OC)c6c(c(CC=C(C)C)c5OC431)OC(C)(CCC=C(C)C)C=C6)C2=O (stereo not drawn)	> 4 mM (inactive)
CC(=O)Nc1cnn(-c2ccccc2)c(=O)c1Cl	> 4 mM (inactive)
CC1CN(C2=NCCN2)CC(C)O1 (stereo not drawn)	> 4 mM (inactive)
CC(C)(C)NC(=O)CN1C(=O)c2ccccc2S1(=O)=O	> 4 mM (inactive)
CC(=O)Nc1cccc(Cn2cccn2)c1	> 4 mM (inactive)
C=CCSCC=C	> 4 mM (inactive)

SMILES	Kd
Cc1onc(-c2ccccc2)c1C(=O)Nc1ccncc1	> 4 mM (inactive)
Cn1c(=O)c2c([nH]c(=O)n2C)n(C)c1=O	> 4 mM (inactive)
Cc1ccccc1C(=O)Nn1cnnc1	> 4 mM (inactive)
NC1CS(=O)(=O)CC1O (stereo not drawn)	> 4 mM (inactive)
Cc1ncc(C[n+]2csc3ccccc32)c(N)n1	> 4 mM (inactive)
CC(C)C(C)/C=C/C(C)C1CCC2C3=CC=C4CC(O)CCC4(C)C3CCC21C (stereo not drawn)	> 4 mM (inactive)
O=C(Nc1c[nH]c(=O)[nH]c1=O)c1ccccc1F	> 4 mM (inactive)
O=C1NC(=S)NC(=O)C1=Cc1ccccc1O	> 4 mM (inactive)
NC(=O)/C=C/C(=O)Nc1ccccc1	> 4 mM (inactive)
CC(=O)Oc1c(-c2ccccc2)oc2c(CC=C(C)C)c3c(c(OC(C)=O)c2c1=O)C=CC(C)(C)O3	> 4 mM (inactive)
CCC(C)C(=O)c1c(O)c(C)c2oc3c(C)c(O)c(C(=O)C(C)CC)c(O)c3c2c1O (stereo not drawn)	> 4 mM (inactive)
O=C(c1ccc(N2CCNCC2)cc1)c1cccnc1	> 4 mM (inactive)
NC(=O)c1cccc2c(=O)oc3ccccc3c12	> 4 mM (inactive)
NC(=O)Cc1nc2ccccc2[nH]1	> 4 mM (inactive)
Cc1sc2nc(NCCO)[nH]c(=O)c2c1C	> 4 mM (inactive)
COc1cc([C@H]2Oc3cc([C@H]4Oc5cc(O)cc(O)c5C(=O)[C@@H]4O)ccc3O[C@@H]2CO)ccc1O	> 4 mM (inactive)
O=C1COc2ccc(C(=O)c3ccccc3)cc2CN1	> 4 mM (inactive)
O=C1CSC(=Nc2ccc(Cl)cc2)N1	> 4 mM (inactive)
Cc1nc2sccn2c1C(=O)O	> 4 mM (inactive)
O=C1CCC([N+](=O)[O-])C(c2ccccc2F)N1 (stereo not drawn)	> 4 mM (inactive)
Cc1cc(C(=O)N2CCOCC2)c(C)o1	> 4 mM (inactive)
O=C(CSc1ncnc2ccccc12)NCCCO	> 4 mM (inactive)
CC(CC(=O)O)n1cccn1 (stereo not drawn)	> 4 mM (inactive)
CCOC(=O)c1sc(SC)c2c1CCCC2O (stereo not drawn)	> 4 mM (inactive)

SMILES	Kd
Cc1ccccc1NC(=O)c1ccccc1	inactive
O=C(CC1Nc2ccccc2NC1=O)Nc1ccc(O)cc1 (stereo not drawn)	> 4 mM (inactive)
CC(=O)c1cc(C)ccc1OC(=O)c1cccnc1	> 4 mM (inactive)
COc1c2c(cc3c1OCO3)CCN(C)C2	> 4 mM (inactive)
O=C1CSC(=Nc2cc(Cl)ccc2Cl)N1	> 4 mM (inactive)
NC(=O)CS(=O)(=O)c1ccc(Cl)cc1	> 4 mM (inactive)
O=C(c1cc2ccccc2o1)c1nc2c(n1O)CCCCC2	> 4 mM (inactive)
Cc1cc(SCCF)n2ncnc2n1	> 4 mM (inactive)
COC[C@]12CN(C=O)C3[C@@H]4[C@H](OC)C1[C@]3(C1CC3(O)C(OC)C(O)C4(OC(C)=O)C1C3OC(=O)c1ccccc1)[C@@H](OC)C[C@H]2O (stereo partly drawn)	> 4 mM (inactive)
CCOC(=O)c1cc(C)[nH]n1	> 4 mM (inactive)
NCc1cc2ccccc2s1	> 4 mM (inactive)
C=CCN1CC[C@]23c4c5ccc(O)c4OC2C(=O)CC[C@@]3(O)[C@H]1C5 (stereo partly drawn)	> 4 mM (inactive)
COc1c(OC)c2occc2c2oc(=O)ccc12	> 4 mM (inactive)
CC[C@H](CCC(C)[C@H]1CCC2C3CCC4C[C@@H](O)CC[C@]4(C)C3CC[C@@]21C)C(C)C (stereo partly drawn)	> 4 mM (inactive)
CCn1c(-c2c[nH]c3ccccc23)n[nH]c1=S	> 4 mM (inactive)
O=C(Nc1ccc(Cl)cn1)c1cnn2cccnc12	> 4 mM (inactive)
COc1ccc2c(c1)OC[C@@H](Cc1ccc(OC)c(OC)c1)[C@@H]2O	> 4 mM (inactive)
Cc1cc(=O)n2ccc(CN3CCOCC3)c(O)c2n1	> 4 mM (inactive)
S=C(NC1=NCCS1)Nc1ccccc1	> 4 mM (inactive)
NC(=O)c1ccc(Cl)c(N2C(=O)CCC2=O)c1	> 4 mM (inactive)
O=C1C[C@@H](c2ccccc2)Oc2cc(O)cc(O)c21	> 4 mM (inactive)
O=C(Nc1nnc(-c2ccncc2)o1)c1cccs1	> 4 mM (inactive)
CC(=O)O[C@@H]1c2c(ccc3ccc(=O)oc23)OC(C)(C)[C@@H]1OC(=O)CC(C)C	> 4 mM (inactive)
O=C(/C(=N\O)n1cncn1)c1ccccc1Cl	> 4 mM (inactive)

SMILES	Kd
CC(C)=CC1C(C(=O)O)C1(C)C (stereo not drawn)	> 4 mM (inactive)
CC(N)C(=O)c1ccco1 (stereo not drawn)	> 4 mM (inactive)
O=C(O)CCNc1n[nH]c(=O)[nH]c1=O	> 4 mM (inactive)
Cc1nn2c3ccccc3nc2n(Cc2ccccc2)c1=O	> 4 mM (inactive)
CC(=O)Nc1ccc(CN2CCOCC2)cc1	> 4 mM (inactive)
O=C(NCCO)NC(=S)c1ccccc1	> 4 mM (inactive)
Cc1ccccc1NC(=O)C1CCC(=O)N1 (stereo not drawn)	> 4 mM (inactive)
Cc1ccc(C)n1NC(=O)c1ccco1	> 4 mM (inactive)
CC(C)c1ccc(NC(=O)C(N)=O)cc1	> 4 mM (inactive)
Cc1ccccc1NC(=O)CC1SC(N)=NC1=O (stereo not drawn)	> 4 mM (inactive)
c1ccc(CCNc2ncnc3nc[nH]c23)cc1	> 4 mM (inactive)
NC(=O)CSc1nnc2ccc(-c3ccco3)nn12	> 4 mM (inactive)
CC(C)n1c(-c2ccncc2)n[nH]c1=S	> 4 mM (inactive)
C=C[C@](C)(O)CCC=C(C)C	> 4 mM (inactive)
Cn1c(=O)c2c(ncn2CCN)n(C)c1=O	> 4 mM (inactive)
OCC1CCCC1O (stereo not drawn)	> 4 mM (inactive)
CC(=O)Oc1ccc2c(c1)c(C(C)=O)c(C)n2C	> 4 mM (inactive)
O=C(c1ccco1)N1CCNCC1	> 4 mM (inactive)
CC(=O)O[C@H]1CC[C@]2(C)C3CC[C@@]4(C)C(CC5O[C@@]6(CCC(C)CO6)[C@@H](C)C54)C3CC[C@@H]2C1 (stereo partly drawn)	> 4 mM (inactive)
COc1ccccc1NC(=O)C1CCC(=O)N1 (stereo not drawn)	> 4 mM (inactive)
CC(C)CC(=O)Nc1c[nH]c(=O)[nH]c1=O	> 4 mM (inactive)
O=C(O)C(Cc1cnc[nH]1)N1C(=O)c2ccccc2C1=O (stereo not drawn)	> 4 mM (inactive)
NC(=O)C1CCN(c2ccc(Cl)nn2)CC1	> 4 mM (inactive)
CCOC(=O)CC1Sc2ccccc2NC1=O (stereo not drawn)	> 4 mM (inactive)

SMILES	Kd
O=C(O)c1ccc(N2CCOCC2)nc1	> 4 mM (inactive)
O=c1[nH]c2ccc(S(=O)(=O)NC3CC3)cc2[nH]1	> 4 mM (inactive)
Nc1ccc(F)cc1F	> 4 mM (inactive)
CC(=O)O[C@H]1C[C@@H](OC(C)=O)C(C)(C)C2C[C@@H](OC(C)=O)[C@@]3(C)C4=CC(=O)O[C@@H](c5ccoc5)[C@]4(C)CCC3[C@]21C (stereo partly drawn)	> 4 mM (inactive)
NCCc1c[nH]c2ccccc12	> 4 mM (inactive)
O=C(CSc1ncn[nH]1)c1ccc2c(c1)OCO2	> 4 mM (inactive)
CC(=O)NC1(NC(C)=O)CCN(C)CC1	> 4 mM (inactive)
c1ccc(C[N+]23CCN(CC2)CC3)cc1	> 4 mM (inactive)
CCSc1nc(N)c(NC(=O)c2ccco2)c(=O)[nH]1	> 4 mM (inactive)
O=C(c1ccc(F)cc1)N1CCOCC1	> 4 mM (inactive)
OCC1CCCN2CCCCC12 (stereo not drawn)	> 4 mM (inactive)
Cc1nc2ccccc2c(=O)n1/N=C/c1ccncc1	> 4 mM (inactive)
O=C1CN(C(=O)c2ccccc2)c2ccccc2N1	> 4 mM (inactive)
O=C(O)c1ccc2nsnc2c1	> 4 mM (inactive)
Oc1cnc2ccccc2c1CN1CCOCC1	> 4 mM (inactive)
Cc1nn(-c2ccccc2)nc1C(N)=O	> 4 mM (inactive)
O=C(NC1=NCCS1)c1ccc(Cl)s1	> 4 mM (inactive)
Cc1cccc(OCc2nnc(N)s2)c1	> 4 mM (inactive)
CCOC(=O)CC1Sc2ccccc2NC1=S (stereo not drawn)	> 4 mM (inactive)
CC(=O)c1ccc(NC(=O)c2ocnc2C)cc1	> 4 mM (inactive)
CC1SC(=NC(=O)c2ccco2)NC1=O (stereo not drawn)	> 4 mM (inactive)
Cc1cccc(N2CCN(C(=O)c3ccncc3)CC2)c1C	> 4 mM (inactive)
